Measurements: ChEMBL document CHEMBL1255475, “Mutant prevention concentrations of four carbapenems against gram-negative rods” (2010)
≈ marks a conversion by molar mass, not a printed value.

Columns and labels:
[1] = system: Acinetobacter baumannii; assay: Antibacterial activity against Acinetobacter baumannii A865 assessed as mutant prevention concentration after overnight incubation; format: functional
[2] = system: Acinetobacter baumannii; assay: Antibacterial activity against Acinetobacter baumannii A867 assessed as mutant prevention concentration after overnight incubation; format: functional
[3] = system: Acinetobacter baumannii; assay: Antibacterial activity against Acinetobacter baumannii A848 incubated up to 7 days by agar dilution method; format: functional; settings: A848, 168 h
[4] = system: Acinetobacter baumannii; assay: Antibacterial activity against Acinetobacter baumannii A891 incubated up to 7 days by agar dilution method; format: functional; settings: A891, 168 h
[5] = system: Klebsiella pneumoniae; assay: Ratio of mutant prevention concentration to minimum Inhibitory concentration for beta-lactamase-positive ESBL-negative Klebsiella pneumoniae E477; format: functional
[6] = system: Klebsiella pneumoniae; assay: Ratio of mutant prevention concentration to minimum Inhibitory concentration for beta-lactamase-positive ESBL-negative Klebsiella pneumoniae E507; format: functional
[7] = system: Acinetobacter baumannii; assay: Antibacterial activity against Acinetobacter baumannii A890 incubated up to 7 days by agar dilution method; format: functional; settings: A890, 168 h
[8] = system: Escherichia coli; assay: Antibacterial activity against beta-lactamase-negative Escherichia coli E346 incubated up to 7 days by agar dilution method; format: functional; settings: E346, 168 h
[9] = system: Escherichia coli; assay: Ratio of mutant prevention concentration to minimum Inhibitory concentration for beta-lactamase-positive ESBL-positive Escherichia coli E459; format: functional
[10] = system: Escherichia coli; assay: Ratio of mutant prevention concentration to minimum Inhibitory concentration for beta-lactamase-negative Escherichia coli E350; format: functional
[11] = system: Pseudomonas aeruginosa; assay: Antibacterial activity against Pseudomonas aeruginosa P327 incubated up to 7 days by agar dilution method; format: functional; settings: P327, 168 h
[12] = system: Klebsiella pneumoniae; assay: Ratio of mutant prevention concentration to minimum Inhibitory concentration for beta-lactamase-positive ESBL-negative Klebsiella pneumoniae E473; format: functional
[13] = system: Klebsiella pneumoniae; assay: Ratio of mutant prevention concentration to minimum Inhibitory concentration for beta-lactamase-negative Klebsiella pneumoniae E419; format: functional
[14] = system: Klebsiella pneumoniae; assay: Antibacterial activity against beta-lactamase-positive ESBL-negative Klebsiella pneumoniae E509 incubated up to 7 days by agar dilution method; format: functional; settings: E509, 168 h
[15] = system: Pseudomonas aeruginosa; assay: Antibacterial activity against Pseudomonas aeruginosa P319 incubated up to 7 days by agar dilution method; format: functional; settings: P319, 168 h
[16] = system: Klebsiella pneumoniae; assay: Ratio of mutant prevention concentration to minimum Inhibitory concentration for beta-lactamase-positive ESBL-negative Klebsiella pneumoniae E479; format: functional
[17] = system: Escherichia coli; assay: Ratio of mutant prevention concentration to minimum Inhibitory concentration for beta-lactamase-positive ESBL-positive Escherichia coli E460; format: functional
[18] = system: Klebsiella pneumoniae; assay: Ratio of mutant prevention concentration to minimum Inhibitory concentration for beta-lactamase-positive ESBL-positive Klebsiella pneumoniae E476; format: functional
[19] = system: Acinetobacter baumannii; assay: Antibacterial activity against Acinetobacter baumannii A896 incubated for 24 h by agar dilution method; settings: A896, 24 h
[20] = system: Klebsiella pneumoniae; assay: Ratio of mutant prevention concentration to minimum Inhibitory concentration for beta-lactamase-negative Klebsiella pneumoniae E417; format: functional
[21] = system: Klebsiella pneumoniae; assay: Ratio of mutant prevention concentration to minimum Inhibitory concentration for beta-lactamase-positive ESBL-negative Klebsiella pneumoniae E481; format: functional
[22] = system: Escherichia coli; assay: Antibacterial activity against beta-lactamase-negative Escherichia coli E425 incubated up to 7 days by agar dilution method; format: functional; settings: E425, 168 h
[23] = system: Escherichia coli; assay: Ratio of mutant prevention concentration to minimum Inhibitory concentration for beta-lactamase-negative Escherichia coli E409; format: functional
[24] = system: Acinetobacter baumannii; assay: Antibacterial activity against Acinetobacter baumannii A929 incubated up to 7 days by agar dilution method; format: functional; settings: A929, 168 h
[25] = system: Pseudomonas aeruginosa; assay: Antibacterial activity against Pseudomonas aeruginosa P332 incubated up to 7 days by agar dilution method; format: functional; settings: P332, 168 h
[26] = system: Escherichia coli; assay: Ratio of mutant prevention concentration to minimum Inhibitory concentration for beta-lactamase-negative Escherichia coli E345; format: functional
[27] = system: Acinetobacter baumannii; assay: Antibacterial activity against Acinetobacter baumannii A884 incubated for 24 h by agar dilution method; settings: A884, 24 h
[28] = system: Pseudomonas aeruginosa; assay: Antibacterial activity against Pseudomonas aeruginosa P323 incubated up to 7 days by agar dilution method; format: functional; settings: P323, 168 h
[29] = system: Escherichia coli; assay: Ratio of mutant prevention concentration to minimum Inhibitory concentration for beta-lactamase-positive ESBL-negative Escherichia coli E437; format: functional
[30] = system: Pseudomonas aeruginosa; assay: Antibacterial activity against Pseudomonas aeruginosa P337 incubated up to 7 days by agar dilution method; format: functional; settings: P337, 168 h
[31] = system: Pseudomonas aeruginosa; assay: Antibacterial activity against Pseudomonas aeruginosa P328 incubated up to 7 days by agar dilution method; format: functional; settings: P328, 168 h
[32] = system: Escherichia coli; assay: Ratio of mutant prevention concentration to minimum Inhibitory concentration for beta-lactamase-positive ESBL-negative Escherichia coli E412; format: functional
[33] = system: Acinetobacter baumannii; assay: Antibacterial activity against Acinetobacter baumannii A910 incubated for 24 h by agar dilution method; settings: A910, 24 h
[34] = system: Klebsiella pneumoniae; assay: Ratio of mutant prevention concentration to minimum Inhibitory concentration for beta-lactamase-positive ESBL-negative Klebsiella pneumoniae E474; format: functional
[35] = system: Escherichia coli; assay: Ratio of mutant prevention concentration to minimum Inhibitory concentration for beta-lactamase-negative Escherichia coli E425; format: functional
[36] = system: Acinetobacter baumannii; assay: Antibacterial activity against Acinetobacter baumannii A849 incubated for 24 h by agar dilution method; settings: A849, 24 h
[37] = system: Escherichia coli; assay: Ratio of mutant prevention concentration to minimum Inhibitory concentration for beta-lactamase-positive ESBL-negative Escherichia coli E415; format: functional
[38] = system: Acinetobacter baumannii; assay: Antibacterial activity against Acinetobacter baumannii A894 incubated up to 7 days by agar dilution method; format: functional; settings: A894, 168 h
[39] = system: Klebsiella pneumoniae; assay: Ratio of mutant prevention concentration to minimum Inhibitory concentration for beta-lactamase-negative Klebsiella pneumoniae E360; format: functional
[40] = system: Pseudomonas aeruginosa; assay: Antibacterial activity against Pseudomonas aeruginosa P320 incubated up to 7 days by agar dilution method; format: functional; settings: P320, 168 h
[41] = system: Escherichia coli; assay: Ratio of mutant prevention concentration to minimum Inhibitory concentration for beta-lactamase-positive ESBL-positive Escherichia coli E451; format: functional
[42] = system: Escherichia coli; assay: Ratio of mutant prevention concentration to minimum Inhibitory concentration for beta-lactamase-negative Escherichia coli E408; format: functional
[43] = system: Escherichia coli; assay: Ratio of mutant prevention concentration to minimum Inhibitory concentration for beta-lactamase-negative Escherichia coli E424; format: functional
[44] = system: Escherichia coli; assay: Ratio of mutant prevention concentration to minimum Inhibitory concentration for beta-lactamase-positive ESBL-positive Escherichia coli E446; format: functional
[45] = system: Klebsiella pneumoniae; assay: Ratio of mutant prevention concentration to minimum Inhibitory concentration for beta-lactamase-negative Klebsiella pneumoniae E361; format: functional
[46] = system: Pseudomonas aeruginosa; assay: Antibacterial activity against Pseudomonas aeruginosa P335 incubated up to 7 days by agar dilution method; format: functional; settings: P335, 168 h
[47] = system: Escherichia coli; assay: Antibacterial activity against beta-lactamase-negative Escherichia coli E344 incubated up to 7 days by agar dilution method; format: functional; settings: E344, 168 h
[48] = system: Escherichia coli; assay: Ratio of mutant prevention concentration to minimum Inhibitory concentration for beta-lactamase-positive ESBL-positive Escherichia coli E465; format: functional
[49] = system: Acinetobacter baumannii; assay: Antibacterial activity against Acinetobacter baumannii A867 incubated for 24 h by agar dilution method; settings: A867, 24 h

SMILES: C[C@@H](O)[C@H]1C(=O)N2C(C(=O)O)=C(SCCNC=N)C[C@H]12 [IMIPENEM ANHYDROUS]
- MPC [1]: 32 µg/mL
- MPC [2]: 64 µg/mL

SMILES: C[C@@H](O)[C@H]1C(=O)N2C(C(=O)O)=C(S[C@@H]3CN[C@H](CNS(N)(=O)=O)C3)[C@H](C)[C@H]12 [DORIPENEM]
- MIC [3]: 8 µg/mL (≈ 19 µM)
- MIC [4]: 0.5 µg/mL (≈ 1.19 µM)
- Ratio [5]: >16
- Ratio [6]: >16
- MIC [7]: 0.25 µg/mL (≈ 0.595 µM)
- MIC [8]: 0.03 µg/mL (≈ 0.0713 µM)
- Ratio [9]: 4
- Ratio [10]: 2
- MIC [11]: 0.25 µg/mL (≈ 0.595 µM)
- Ratio [12]: 4
- Ratio [13]: 2
- MIC [14]: 4 µg/mL (≈ 9.51 µM)
- MIC [15]: 2 µg/mL (≈ 4.76 µM)
- Ratio [16]: >16
- Ratio [17]: 4
- Ratio [18]: 4
- MIC [19]: 0.5 µg/mL (≈ 1.19 µM)
- Ratio [20]: 2
- Ratio [21]: 4
- MIC [22]: 0.03 µg/mL (≈ 0.0713 µM)
- Ratio [23]: 4
- MIC [24]: 2 µg/mL (≈ 4.76 µM)
- MIC [25]: 0.25 µg/mL (≈ 0.595 µM)
- Ratio [26]: 2
- MIC [27]: 2 µg/mL (≈ 4.76 µM)
- MIC [28]: 0.5 µg/mL (≈ 1.19 µM)
- Ratio [29]: 2
- MIC [30]: 1 µg/mL (≈ 2.38 µM)
- MIC [31]: 2 µg/mL (≈ 4.76 µM)
- MPC [1]: 64 µg/mL
- Ratio [32]: 4
- MIC [33]: 2 µg/mL (≈ 4.76 µM)
- Ratio [34]: 16
- Ratio [35]: 2
- MIC [36]: 4 µg/mL (≈ 9.51 µM)
- Ratio [37]: 2
- MIC [38]: 0.5 µg/mL (≈ 1.19 µM)
- Ratio [39]: 2
- MIC [40]: 0.25 µg/mL (≈ 0.595 µM)
- Ratio [41]: 2
- Ratio [42]: 2
- Ratio [43]: 2
- MPC [2]: 64 µg/mL
- Ratio [44]: 2
- Ratio [45]: 2
- MIC [46]: 2 µg/mL (≈ 4.76 µM)
- MIC [47]: 0.03 µg/mL (≈ 0.0713 µM)
- Ratio [48]: 16
- MIC [49]: 4 µg/mL (≈ 9.51 µM)

SMILES: C[C@@H](O)[C@H]1C(=O)N2C(C(=O)O)=C(S[C@@H]3CN[C@H](C(=O)N(C)C)C3)[C@H](C)[C@H]12 [MEROPENEM]
- MIC [3]: 8 µg/mL (≈ 20.9 µM)
- MIC [4]: 1 µg/mL (≈ 2.61 µM)
- MIC [7]: 0.5 µg/mL (≈ 1.3 µM)
- MIC [11]: 0.25 µg/mL (≈ 0.652 µM)
- MIC [15]: 2 µg/mL (≈ 5.22 µM)
- MIC [19]: 1 µg/mL (≈ 2.61 µM)
- MIC [24]: 2 µg/mL (≈ 5.22 µM)
- MIC [25]: 1 µg/mL (≈ 2.61 µM)
- MIC [27]: 4 µg/mL (≈ 10.4 µM)
- MIC [28]: 0.5 µg/mL (≈ 1.3 µM)
- MIC [30]: 1 µg/mL (≈ 2.61 µM)
- MIC [31]: 2 µg/mL (≈ 5.22 µM)
- MIC [33]: 1 µg/mL (≈ 2.61 µM)
- MIC [36]: 8 µg/mL (≈ 20.9 µM)
- MIC [38]: 1 µg/mL (≈ 2.61 µM)
- MIC [40]: 0.5 µg/mL (≈ 1.3 µM)
- MIC [46]: 4 µg/mL (≈ 10.4 µM)
- MIC [49]: 8 µg/mL (≈ 20.9 µM)

SMILES: C[C@@H](O)[C@H]1C(=O)N2C(C(=O)O)=C(S[C@@H]3CN[C@H](C(=O)Nc4cccc(C(=O)O)c4)C3)[C@H](C)[C@H]12
- Ratio [5]: 4
- Ratio [6]: 8
- MIC [8]: 0.008 µg/mL (≈ 0.0168 µM)
- Ratio [9]: 2
- Ratio [10]: 2
- Ratio [12]: 4
- Ratio [13]: 2
- MIC [14]: 16 µg/mL (≈ 33.6 µM)
- Ratio [16]: 8
- Ratio [17]: 4
- Ratio [18]: 4
- Ratio [20]: 2
- Ratio [21]: 2
- MIC [22]: 0.008 µg/mL (≈ 0.0168 µM)
- Ratio [23]: 8
- Ratio [26]: 4
- Ratio [29]: 2
- Ratio [32]: 16
- Ratio [34]: 8
- Ratio [35]: 4
- Ratio [37]: 4
- Ratio [39]: 4
- Ratio [41]: 16
- Ratio [42]: 4
- Ratio [43]: 4
- Ratio [44]: 4
- Ratio [45]: 4
- MIC [47]: 0.008 µg/mL (≈ 0.0168 µM)
- Ratio [48]: >16
